Data published in patent US9670139B2, “Telomerase activating compounds and methods of use thereof” (BEN-GURION UNIVERSITY OF THE NEGEV RESEARCH AND DEVELOPMENT …, priority 2007, dated 2017).

Key:
C. elegans = test: Lifespan extension of nematodes (C. elegans); assay type: in vivo; conditions: 50 micromolar; for Lifespan extension (%): Table 2, versus untreated controls; for Lifespan %: table of scaffold drawing 36, mean lifespan versus control
Procedure: Nematodes (C. elegans) were administered tri-phenyl telomerase-activating compounds presented in the following tables, and telomerase activity and/or expression was measured in terms of nematode lifespan extension. Nematodes were grown with the activators at 50 micromolar concentration, and the mean, maximum and half-life for Compound 68 and Compound 77, two representative molecules, was measured versus that of the control (FIG. 8). Values represent mean lifespan.
Survival of the C. elegans, a nematode that normally survives for 12-14 days, represents an acceptable model for studying life extension. Nematodes were administered tri-phenyl telomerase-activating compounds and their effect on the nematode lifespan extension was determined. Nematodes were grown with the activators at a concentration of 50 micromolar, and mean, maximum and half-life were measured in comparison with untreated controls. Lifespan increased by 13-43% (Table 2), and the median lifespan increased approximately 2-fold (from 12 days to 22 days, as shown in FIG. 8).

telomerase [1] = test: Telomerase expression in rat brain cortex after subcutaneous injection (immunofluorescence); assay type: in vivo
Source text: The effect of compounds of the present invention injected subcutaneously into female rats and adult male mice on telomerase expression in various regions of the brain was examined.

[2] = system: murine B-cell leukemia lymphoma (BCL1) cells; test: BCL1 tumorigenicity in (BALB/c×C57BL/6)F1 mice; assay type: in vivo, mouse; conditions: mice inoculated with 10^5 BCL1 cells; Compound 77 10 mM
Procedure: (BALB/c×C57BL/6)F1 mice were inoculated with 10^5 murine B-cell leukemia lymphoma (BCL1) cells. Splenomegaly and lymphocytosis (leukemia) developed in all controls and in mice treated with telomerase-activating compounds (40 or 80 mg/kg).

[3] = Graft-versus-host disease (GVHD) induced by C57BL/6 spleen cells; assay type: in vivo, mouse; conditions: F1 mice inoculated with 30×10^6 C57BL/6 spleen cells
Source text: (BALB/c×C57BL/6)F1 mice were inoculated with 30×10^6C57BL/6 spleen cells for induction of GVHD.

Human keratinocytes = test: Proliferation and survival of senescent human keratinocytes; assay type: cell-based; conditions: fifth passage keratinocytes
Procedure: Human keratinocytes which had lost their ability to proliferate (in their fifth passage) were obtained from a local skin bank and treated with Compound 68 for 24 h. Cell viability, cell number and morphology was examined.

telomerase [4] = test: Telomerase expression in mouse brain regions after subcutaneous injection (immunofluorescence); assay type: in vivo; conditions: three-month-old male mice, 24 h
Procedure: Compound 79 was injected subcutaneously into three-month-old male mice. The mice were sacrificed 24 h later and the cortex, cerebellum, hippocampus, hypothalamus, brain stem and olfactory bulb isolated and subjected to immunofluorescence. […] This activation appeared to be specific for certain neuronal cells.

mouse cerebellum = test: Prevention of glutamate-induced apoptosis in mouse cerebellum slices; assay type: in vivo; conditions: 6 mg/kg, 24 h; slices treated with glutamate 30 min
Procedure: The ability of compounds of the present invention to prevent glutamate-induced apoptosis in mouse cerebellum was examined. Mice were injected with 6 mg/kg of Compound 79 or with vehicle only. Mice were sacrificed 24 h after treatment and their brains were removed. Cerebellum slices were prepared and subjected to glutamate treatment at various concentrations for 30 min. Sections were stained with propidium iodide and the number of apoptotic cells was counted and calculated using specific software (Jimage). Prevention of apoptosis in mice treated with compounds of the present invention was calculated as a percentage relative to control mice (FIG. 13). This supports a role for compounds of the present invention in treating seizures, stroke, Alzheimer's disease, epilepsy, schizophrenia, and alcohol and opiate addition.

telomerase [5] = test: Telomerase expression in mouse heart protein extracts; assay type: in vivo; conditions: after injection, one mouse
Procedure: The activation of telomerase by compounds of the present invention in heart protein extracts derived from one mouse was measured (FIG. 14). […] This supports a role for compounds of the present invention in treating infarct, ischemia, myocarditis, etc.

telomerase [6] = molecular target: T1, telomerase (Homo sapiens, UniProt O14746); test: Real time PCR quantification of telomerase activity in hMSC nuclear extracts; assay type: cell-based; design: endogenous in cells; conditions: 250 nM
T1 sequence (O14746 whole entry): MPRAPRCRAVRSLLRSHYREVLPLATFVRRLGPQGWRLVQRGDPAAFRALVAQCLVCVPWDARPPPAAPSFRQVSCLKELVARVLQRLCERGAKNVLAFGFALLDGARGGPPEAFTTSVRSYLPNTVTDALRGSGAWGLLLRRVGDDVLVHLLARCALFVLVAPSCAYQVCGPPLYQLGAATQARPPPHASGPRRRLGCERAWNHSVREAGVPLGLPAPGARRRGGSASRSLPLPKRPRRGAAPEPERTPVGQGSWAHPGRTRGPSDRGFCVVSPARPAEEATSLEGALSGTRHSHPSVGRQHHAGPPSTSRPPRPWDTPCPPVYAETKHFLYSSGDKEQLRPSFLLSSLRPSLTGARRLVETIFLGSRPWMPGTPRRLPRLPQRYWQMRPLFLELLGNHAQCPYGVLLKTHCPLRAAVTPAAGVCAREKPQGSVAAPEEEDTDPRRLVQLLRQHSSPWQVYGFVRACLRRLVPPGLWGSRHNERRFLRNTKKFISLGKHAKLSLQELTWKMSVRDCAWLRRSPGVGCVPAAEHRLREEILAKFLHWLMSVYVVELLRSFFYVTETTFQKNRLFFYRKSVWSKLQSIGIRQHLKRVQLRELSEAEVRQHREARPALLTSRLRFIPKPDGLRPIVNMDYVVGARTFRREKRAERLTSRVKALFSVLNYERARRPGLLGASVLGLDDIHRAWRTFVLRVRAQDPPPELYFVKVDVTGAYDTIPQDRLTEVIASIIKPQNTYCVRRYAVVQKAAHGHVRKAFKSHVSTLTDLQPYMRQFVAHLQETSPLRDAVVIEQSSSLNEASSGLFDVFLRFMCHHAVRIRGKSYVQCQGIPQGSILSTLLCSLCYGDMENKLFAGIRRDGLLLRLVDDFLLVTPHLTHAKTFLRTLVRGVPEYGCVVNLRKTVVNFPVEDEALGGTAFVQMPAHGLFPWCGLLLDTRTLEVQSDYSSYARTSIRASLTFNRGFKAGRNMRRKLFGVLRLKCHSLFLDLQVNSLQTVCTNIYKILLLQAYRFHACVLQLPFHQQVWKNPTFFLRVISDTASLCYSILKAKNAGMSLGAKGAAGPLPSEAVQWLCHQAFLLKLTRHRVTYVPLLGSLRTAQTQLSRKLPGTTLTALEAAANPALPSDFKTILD
Procedure: FIG. 5: Activation of telomerase expression in hMSC by compounds of the present invention. A.—hMSC were treated with 250 nM of Compounds 79, 77 and 68 for 6 hours. Immunofluorescence was performed with anti-hTERT antibody (red) and the nucleus was stained with DAPI (blue). B. hMSC treated with compound 79 for 6 and 24 h. Telomerase activity was measured by real time PCR using a quantitative telomerase detection kit (Allied Biotech Inc., USA).
The possibility that compounds of the present invention enhance hMSC survival and proliferation by activation of TERT was examined by culturing hMSC (p 3) in a tissue culture chamber slide at 17×10^3 cells/well for 60 h. Compounds of the present invention were added for 6 h with fresh medium. Immunofluorescence with anti-hTERT antibody (first antibody) and cy3 fluorescent secondary antibody was carried out. The nucleus was stained with DAPI. Compounds of the present invention activated telomerase expression in hMSC (FIG. 5). […] Degree of activation of telomerase expression was Compound 68>79>77. Quantification of telomerase activity in hMSC was performed by Real time PCR (Quantification telomerase detection kit) in nuclear extracts derived from hMSC treated with compound 79 (250 nM) for 6 or 24 h. Compound 79 enhanced telomerase activity in hMSC by 12- or 6-fold in a time-dependent manner (FIG. 5B).

telomerase [7] = molecular target: T1, telomerase; test: Telomerase activity in RPE cells (quantitative telomerase detection kit, real time PCR); assay type: cell-based; design: endogenous in cells; host or cells: human retinal pigmented epithelial (RPE) cells; conditions: FIG. 7B
Source text: FIG. 7: A. The effect of compounds of the present invention on human retinal pigmented epithelial cells under oxidative stress. B. The effect of compounds on telomerase activity in RPE cells (measured by a quantitative telomerase detection kit-real time PCR).
Chronic exposure of human retinal pigmented epithelial (RPE) cells to oxidative stress predisposes them to the development of age-related macular degeneration (AMD). Human RPE cells were exposed to oxidative stress by treatment with H2O2 (1 mM) for 24 hours, and H2O2 (0.5 mM) for another 24 hours. The cells were then treated daily for two days with the indicated compounds in the absence of H2O2. Increased cell growth was observed as a consequence of treatment with the compounds (FIG. 7A). Telomerase activity was enhanced in RPE cells treated with compounds 68 and 79 by 30- and 50-fold, respectively (FIG. 7B).

Structure (SMILES) | Lifespan extension (%) (C. elegans) | Lifespan % (C. elegans) [%] | expression of telomerase in the brain cortex (telomerase [1]) | Survival Median (range) [2] | signs of acute GVHD (weight loss) versus untreated controls [3] | cell survival effect on keratinocytes (comparison) (Human keratinocytes) | telomerase expression in motor-neuronal cells of the brain stem (telomerase [4]) | telomerase expression in the various brain regions (telomerase [4]) | glutamate-induced apoptosis in mouse cerebellum (mouse cerebellum) | heart telomerase expression (telomerase [5]) | enhancement of telomerase activity in hMSC (telomerase [6]; 6 h) [fold] | enhancement of telomerase activity in hMSC (telomerase [6]; 24 h) [fold] | enhancement of telomerase activity in RPE cells (telomerase [7]) [fold]
CN(C)Cc1cc(C(C)(c2cc(CN(C)C)c(O)c(CN(C)C)c2)c2cc(CN(C)C)c(O)c(CN(C)C)c2)cc(CN(C)C)c1O [Compound 77] | 43 | 43 | significantly activated | 26 (22-41) | more severe signs of acute GVHD |  |  |  |  |  |  |  | 
CCOCc1cc(C(C)(c2cc(COCC)c(O)c(COCC)c2)c2cc(COCC)c(O)c(COCC)c2)cc(COCC)c1O [Compound 79] | 16 | 16 | significantly activated |  |  | better cell survival effect than Compound 68 | increased telomerase expression | significantly and dramatically increased | Prevention of glutamate-induced apoptosis | significant increase | 12 | 6 | 50
